Literature values, collected in patent publication US20250041332A1, “SYSTEMIC INJECTION OF SUPERHEATED PERFLUOROCARBON EMULSION TO IMPROVE VENTILATION AND REDUCE VENTILATOR-INDUCED LUNG INJURY” (THE BOARD OF REGENTS OF THE UNIVERSITY OF TEXAS SYSTEM, priority 2021, published 2025).
Read-outs that look alike come from different tables or passages of the source.

Columns and labels:
[1] = intravenous

Structure (SMILES): FC(F)(F)C(F)(F)C(F)(F)C(F)(F)C(F)(F)C(F)(F)C(F)(F)C(F)(F)Br [PFOB, perfluorooctyl bromide]
- Time in which half the dose is recovered from the exhaled gas [1]: 3 to 12 days

Structure (SMILES): FC(F)(F)C(F)(F)C(F)(F)C(F)(F)F [perfluorobutane]
- Vapor pressure (at 25° C.): about 330.3 kPa
- Vapor pressure (temperature not given): approximately 330 kPa

Structure (SMILES): FC(F)(F)C(F)(F)C(F)(F)C(F)(F)C(F)(F)F [perfluoropentane]
- Vapor pressure (at 25° C.): about 83.99 kPa

Structure (SMILES): FC(F)(F)C(F)(F)C(F)(F)F [perfluoropropane]
- Vapor pressure (at 21.1° C.): about 792 kPa
